In patent US11083725B2 (priority 2014, dated 2021):

Test system: NHBE cells
Test: Biolog metabolic array: substrate use by NHBE cells with or without CA09 infection
Type: cell-based, human
Settings: for Substrate use, 590 nm absorbance normalized to zero hour, 0 hr: Biolog PMM2, 0 hr; for Substrate use, 590 nm absorbance normalized to zero hour, 1 hr: Biolog PMM2, 1 hr; for Substrate use, 590 nm absorbance normalized to zero hour, 5 hr: Biolog PMM2, 5 hr; for Substrate use, 590 nm absorbance normalized to zero hour, 7 hr: Biolog PMM2, 7 hr
[1] = Control (uninfected) NHBE cells
[2] = Virus (CA09-infected, MOI 1) NHBE cells
[3] = Virus: CA09-infected NHBE cells, MOI 1, Biolog PMM2
[4] = Virus (CA09, MOI 1) infected NHBE cells

SMILES	590 nm absorbance normalized to zero hour (substrate use), 1 hr [1]	590 nm absorbance normalized to zero hour (substrate use), 2 hr [1]	590 nm absorbance normalized to zero hour (substrate use), 3 hr [1]	590 nm absorbance normalized to zero hour (substrate use), 4 hr [1]	590 nm absorbance normalized to zero hour (substrate use), 6 hr [1]	590 nm absorbance normalized to zero hour (substrate use), 8 hr [1]	590 nm absorbance normalized to zero hour (substrate use), 9 hr [1]	590 nm absorbance normalized to zero hour (substrate use), 10 hr [1]	590 nm absorbance normalized to zero hour (substrate use), 11 hr [1]	Substrate use, 590 nm absorbance normalized to zero hour, 1 hr [1]	Substrate use, 590 nm absorbance normalized to zero hour, 5 hr [1]	Substrate use, 590 nm absorbance normalized to zero hour, 7 hr [1]	590 nm absorbance normalized to zero hour (substrate use), 1 hr [2]	590 nm absorbance normalized to zero hour (substrate use), 2 hr [2]	590 nm absorbance normalized to zero hour (substrate use), 3 hr [2]	590 nm absorbance normalized to zero hour (substrate use), 4 hr [2]	590 nm absorbance normalized to zero hour (substrate use), 6 hr [2]	590 nm absorbance normalized to zero hour (substrate use), 8 hr [2]	590 nm absorbance normalized to zero hour (substrate use), 9 hr [2]	590 nm absorbance normalized to zero hour (substrate use), 10 hr [2]	also measured
OC[C@H]1O[C@H](O[C@H]2O[C@H](CO)[C@@H](O)[C@H](O)[C@H]2O)[C@H](O)[C@@H](O)[C@@H]1O [D-Trehalose]	1.68	2.24	2.70	2.88	3.69	4.74	5.11	4.09	4.60	1.68	3.48	4.20	1.66	2.04	2.20	2.27	2.66	2.93	3.11	3.25	590 nm absorbance normalized to zero hour (substrate use), 0 hr [1]: 1.00; Substrate use, 590 nm absorbance normalized to zero hour, 0 hr [1]: 1.00; 590 nm absorbance normalized to zero hour (substrate use), 0 hr [2]: 1.00; 590 nm absorbance normalized to zero hour (substrate use), 5 hr [2]: 2.52; 590 nm absorbance normalized to zero hour (substrate use), 7 hr [2]: 2.79; 590 nm absorbance normalized to zero hour (substrate use), 11 hr [2]: 3.07; 590 nm absorbance normalized to zero hour (substrate use), 0 hr [3]: 1.00; 590 nm absorbance normalized to zero hour (substrate use), 1 hr [3]: 1.66; 590 nm absorbance normalized to zero hour (substrate use), 2 hr [3]: 2.04; 590 nm absorbance normalized to zero hour (substrate use), 3 hr [3]: 2.20; 590 nm absorbance normalized to zero hour (substrate use), 4 hr [3]: 2.27; 590 nm absorbance normalized to zero hour (substrate use), 5 hr [3]: 2.52; 590 nm absorbance normalized to zero hour (substrate use), 6 hr [3]: 2.66; 590 nm absorbance normalized to zero hour (substrate use), 7 hr [3]: 2.79; 590 nm absorbance normalized to zero hour (substrate use), 8 hr [3]: 2.93; 590 nm absorbance normalized to zero hour (substrate use), 9 hr [3]: 3.11; 590 nm absorbance normalized to zero hour (substrate use), 10 hr [3]: 3.25; 590 nm absorbance normalized to zero hour (substrate use), 11 hr [3]: 3.07
O=C(O)[C@H](O)[C@@H](O)[C@H](O)[C@H](O)CO[C@H]1O[C@H](CO)[C@H](O)[C@H](O)[C@H]1O [Melibionic Acid]	0.20	0.76	0.58	0.66	0.40	0.51	0.53	0.57	0.60	0.20	0.48	0.47	3.52	3.58	3.59	3.66	3.22	2.89	2.67	1.66	590 nm absorbance normalized to zero hour (substrate use), 0 hr [1]: 1.00; Substrate use, 590 nm absorbance normalized to zero hour, 0 hr [1]: 1.00; Substrate use, 590 nm absorbance normalized to zero hour, 0 hr [4]: 1.00; Substrate use, 590 nm absorbance normalized to zero hour, 1 hr [4]: 3.52; Substrate use, 590 nm absorbance normalized to zero hour, 5 hr [4]: 3.34; Substrate use, 590 nm absorbance normalized to zero hour, 7 hr [4]: 3.05; 590 nm absorbance normalized to zero hour (substrate use), 0 hr [2]: 1.00; 590 nm absorbance normalized to zero hour (substrate use), 11 hr [2]: 2.18
OC[C@@H](O)[C@@H](O)[C@H](O)[C@@H](O)CO [D-Sorbitol]	2.10	2.97	3.57	3.84	4.81	5.56	6.08	6.47	6.92	2.10	4.59	5.29	1.80	2.63	3.10	3.35	4.37	4.94	5.39	5.64	590 nm absorbance normalized to zero hour (substrate use), 5 hr [2]: 4.00; 590 nm absorbance normalized to zero hour (substrate use), 7 hr [2]: 4.63; 590 nm absorbance normalized to zero hour (substrate use), 11 hr [2]: 6.18; 590 nm absorbance normalized to zero hour (substrate use), 1 hr [3]: 1.80; 590 nm absorbance normalized to zero hour (substrate use), 2 hr [3]: 2.63; 590 nm absorbance normalized to zero hour (substrate use), 3 hr [3]: 3.10; 590 nm absorbance normalized to zero hour (substrate use), 4 hr [3]: 3.35; 590 nm absorbance normalized to zero hour (substrate use), 5 hr [3]: 4.00; 590 nm absorbance normalized to zero hour (substrate use), 6 hr [3]: 4.37; 590 nm absorbance normalized to zero hour (substrate use), 7 hr [3]: 4.63; 590 nm absorbance normalized to zero hour (substrate use), 8 hr [3]: 4.94; 590 nm absorbance normalized to zero hour (substrate use), 9 hr [3]: 5.39; 590 nm absorbance normalized to zero hour (substrate use), 10 hr [3]: 5.64; 590 nm absorbance normalized to zero hour (substrate use), 11 hr [3]: 6.18
